Reference: ChEMBL document CHEMBL5303711, “ECBD screening data for assay EOS300108” (2023)
Where a name gives a salt, the structure may show the parent alone. Activity calls are given as the source filed them. The rule behind the calls is not given here.

Test: Cytotoxicity activity against human HepG2 cells assessed by CellTiter-Glo luminescent cell viability assay.
Assay type: toxicity, cell-based
Parameters: assay stage confirmatory assay, source tissue liver
Conditions: HepG2 cells, read-out: IC50 relative

SMILES	CC50
Oc1cc2c(cc1C(c1ccc(C(F)(F)F)cc1)N1CCOCC1)OCO2 (stereo not drawn)	26 µM (inactive)
O=C(Nc1cccc2cccnc12)c1cccc2cn[nH]c12	50 µM (inactive)
CCN(C(=O)c1ccc(-n2ccnc2)nc1)S(=O)(=O)c1ccc(C)cc1	11.7 µM (inactive)
O=C(Nc1ccc(O[C@H]2CCOC2)cc1)c1cn2ccnc2s1	1.8 µM (active)
CC(C)COCC(O)CN1CCCN(c2ccc(NC(=O)COc3ccc(Cl)cc3)cn2)CC1 (stereo not drawn)	5.8 µM (active)
Cn1nc(C(=O)Nc2ccc(Oc3ccc(F)cc3)cn2)ccc1=O	6.7 µM (active)
N#Cc1c(Oc2ccc(F)c(NC(=O)Cc3cccc(C(F)(F)F)c3)c2)ccc2nc(NC(=O)C3CC3)sc12	0.4 µM (active)
CCN1CCN(CCNC(=O)c2cn3ccnc(-c4ccc(C)cc4)c3n2)CC1	29 µM (inactive)
Cc1nc(-c2ccccc2)oc1C(=O)Nc1ccc(N2CCN(C)CC2)cn1	12.9 µM (active)
CC[N+](CC)=c1ccc2nc3c(cc(N)c4ccccc43)oc-2c1 [NILE BLUE HYDROCHLORIDE]	2 µM (active)
N#Cc1c(N)[nH]c2cc(Br)ccc12	18 µM (inactive)
O=C(CC1NCCCC1O)Cn1cnc2cc(Br)c(Cl)cc2c1=O (stereo not drawn) [HALOFUGINONE]	0.1 µM (active)
O=C(NCc1ccc(-n2ccnc2)nc1)[C@@H]1CC(c2ccccc2)=NO1	6.3 µM (active)
CCS(=O)(=O)c1ncc(Cl)c(C(=O)Nc2ccc(OC)cc2)n1	2.6 µM (active)
O=c1[nH]c2ccccc2n1C1CCN(CCCC(c2ccc(F)cc2)c2ccc(F)cc2)CC1 [PIMOZIDE]	4.6 µM (active)
Cc1cc(-c2ccc(O)cc2O)nc2cc3c(cc12)OCO3	26.3 µM (inactive)
CN[C@H](C(=O)N[C@H](C(=O)N(C)[C@H](/C=C(\C)C(=O)O)C(C)C)C(C)(C)C)C(C)(C)c1ccccc1 [TALTOBULIN]	0.2 µM (active)

SMILES	CC50
COc1ccc(C[C@H](NC(=O)[C@H](C)NC(=O)CN2CCOCC2)C(=O)N[C@@H](Cc2ccccc2)C(=O)[C@@]2(C)CO2)cc1	0.5 µM (active)
COc1ccc(-c2csc3[nH]c(=O)cc(O)c23)cc1	3.7 µM (active)
CN(C)C1CCN(C(C)(C)CNCc2cccc(Cl)c2N)CC1	12 µM (active)
COc1cc(NCCCC(C)N)c2ncccc2c1 (stereo not drawn)	8.6 µM (active)
CCCS(=O)(=O)N1CCc2ccc(NC(=O)Nc3cccc(C#N)c3)cc21	10.2 µM (active)
COc1cc(N2CCN(C)CC2)ccc1Nc1nccc(-c2cn(C)c3cnccc23)n1	4.4 µM (active)
C[C@@H]1CC[C@@]2(OC1)O[C@H]1C[C@H]3[C@@H]4CC=C5C[C@@H](O[C@@H]6O[C@H](CO)[C@@H](O[C@@H]7O[C@@H](C)[C@H](O)[C@@H](O)[C@H]7O)[C@H](O)[C@H]6O[C@@H]6O[C@@H](C)[C@H](O)[C@@H](O)[C@H]6O)CC[C@]5(C)[C@H]4CC[C@]3(C)[C@H]1[C@@H]2C [DIOSCIN]	0.7 µM (active)
COc1ccc(N(C(=O)Nc2c(C)cccc2C)c2cc(Nc3ccc(N4CCN(C)CC4)cc3)ncn2)c(OC)c1	6.1 µM (active)
COc1cc(OC)c2cc(CCCN)[nH]c2c1	8.2 µM (active)
FC(F)(F)c1ccc(/C=C/c2nc(COc3ccc(CCCCn4ccnn4)cc3)co2)cc1 [MUBRITINIB]	0.3 µM (active)
Cc1cc2c(N3CC[C@@]4(C3)NC(=O)N(C)C4=O)ccnc2cc1Cl	8.6 µM (active)
COc1ccc(-c2cc3c4nn(CC(=O)Nc5cccc(OC)c5)c(=O)n4ccn3n2)cc1	50 µM (inactive)
Cc1c(CNCCCN2CCCCC2CO)oc2ccccc12 (stereo not drawn)	9.8 µM (active)
COc1cc(C(N)=O)ccc1NC(=O)[C@@H]1N[C@@H](CC(C)(C)C)[C@@]2(C(=O)Nc3cc(Cl)ccc32)[C@H]1c1cccc(Cl)c1F	5.3 µM (inactive)
Cc1ccc(NC(=O)c2ccc(CN3CCN(C)CC3)cc2)cc1Nc1nccc(-c2cccnc2)n1 [IMATINIB]	7.3 µM (active)
O=c1cc(-c2ccc(O)c(O)c2)oc2cc(O)cc(O)c12 [LUTEOLIN]	9 µM (active)
